Experimental data: US20230079045A1 (priority 2019, published 2023)
Where two headings read alike, the source gives them in different places.

Legend:
IFVA/Weiss/43 = assay: cytopathic effect (CPE) antiviral test in MDCK cells, IFVA/Weiss/43; assay type: cell-based, influenza virus
IFVA/Mal/302/54 = assay: cytopathic effect (CPE) antiviral test in MDCK cells, IFVA/Mal/302/54; assay type: cell-based, influenza virus
[1] = unidentified influenza virus, MDCK, 120 h, read-out: EC50(IFVA/Weiss/43), MDCK cells, CPE method, CCK-8 cell viability, 5 days
[2] = unidentified influenza virus, MDCK, 120 h, read-out: EC50(IFVA/Mal/302/54), MDCK cells, CPE method, CCK-8 cell viability, 5 days
[3] = read-out: EC50(IFVA/Weiss/43), MDCK cells, CPE method, CCK-8 cell viability, 5 days
[4] = read-out: EC50(IFVA/Mal/302/54), MDCK cells, CPE method, CCK-8 cell viability, 5 days

| SMILES | EC50 (IFVA/Weiss/43; [1]) [µM] | EC50 (IFVA/Mal/302/54; [2]) [µM] | EC50 (IFVA/Weiss/43; [3]) [µM] | EC50 (IFVA/Mal/302/54; [4]) [µM] |
| --- | --- | --- | --- | --- |
| O=C(Nc1ccc2oc(-c3ccnc(C(=O)N4CCN(C(c5ccccc5)c5nnn(C(F)F)n5)CC4)c3)nc2c1)[C@@H]1CC1(F)F (mixture of isomers) [Compound 29, (1S)—N-(2-(2-(4-((2-(difluoromethyl)-2H-tetrazol-5-yl)(phenyl)methyl)piperazine-1-carbonyl)pyridin-4-yl)benzo[d]oxazol-5-yl)-2,2-difluorocyclopropane-1-carboxamide] | 0.004 | 0.022 | – | – |
| O=C(Nc1ccc2oc(-c3ccnc(C(=O)N4CCN(C(c5ccccc5)c5nnn(C(F)F)n5)CC4)c3)nc2c1)[C@@H]1C[C@@H]1F (mixture of isomers) [Compound 31, (1S,2S)-2-fluoro-N-(2-(2-(4-((2-difluoromethyl-2H-tetrazol-5-yl)(phenyl)methyl)piperazine-1-carbonyl)pyridin-4-yl)benzo[d]oxazol-5-yl)cyclopropane-1-carboxamide] | 0.002 | 0.007 | – | – |
| CC(=O)Nc1ccc2oc(-c3ccnc(C(=O)N4CCN(C(c5ccccc5)c5nnn(C(F)F)n5)CC4)c3F)nc2c1 (racemic) [Compound 79, (R/S)—N-(2-(2-(4-((2-(difluoromethyl)-2H-tetrazol-5-yl)(phenyl)methyl)piperazine-1-carbonyl)-3-fluoropyridin-4-yl)benzo[d]oxazol-5-yl)acetamide] | 0.007 | 0.013 | – | – |
| Cn1ccnc1-c1ccc2oc(-c3ccnc(C(=O)N4CCN(C(c5ccccc5)c5nnn(C(F)F)n5)CC4)c3)nc2c1 (racemic) [Compound 88, (R/S)-(4-((2-(difluoromethyl)-2H-tetrazol-5-yl)(phenyl)methyl)piperazin-1-yl)(4-(5-(1-methyl-1H-imidazol-2-yl)benzo[d]oxazol-2-yl)pyridin-2-yl)methanone] | 0.002 | 0.002 | – | – |
| CC(=O)Nc1ccc2nc(-c3ccnc(C(=O)N4CCN(C(c5ccccc5)c5nnn(C(F)F)n5)CC4)c3)oc2c1 (racemic) [Compound 90, (R/S)—N-(2-(2-(4-((2-(difluoromethyl)-2H-tetrazol-5-yl)(phenyl)methyl)piperazine-1-carbonyl)pyridin-4-yl)benzo[d]oxazol-6-yl)acetamide] | 0.028 | 0.018 | – | – |
| CCC(=O)Nc1ccc2oc(-c3ccnc(C(=O)N4CCN(C(c5ccccc5)c5nnn(C(F)F)n5)CC4)c3)nc2c1 (racemic) [Compound 96, (R/S)—N-(2-(2-(4-((2-(difluoromethyl)-2H-tetrazol-5-yl)(phenyl)methyl)piperazine-1-carbonyl)pyridin-4-yl)benzo[d]oxazol-5-yl)propionamide] | 0.012 | 0.007 | – | – |
| CC(C)C(=O)Nc1ccc2oc(-c3ccnc(C(=O)N4CCN(C(c5ccccc5)c5nnn(C(F)F)n5)CC4)c3)nc2c1 (racemic) [Compound 97, (R/S)—N-(2-(2-(4-((2-(difluoromethyl)-2H-tetrazol-5-yl)(phenyl)methyl)piperazine-1-carbonyl)pyridin-4-yl)benzo[d]oxazol-5-yl)isobutyramide] | 0.007 | 0.006 | – | – |
| O=C(c1cc(-c2nc3cc(-c4cscn4)ccc3o2)ccn1)N1CCN(C(c2ccccc2)c2nnn(C(F)F)n2)CC1 (racemic) [Compound 110, (R/S)-(4-((2-(difluoromethyl)-2H-tetrazol-5-yl)(phenyl)methyl)piperazin-1-yl)(4-(5-(thiazol-4-yl)benzo[d]oxazol-2-yl)pyridin-2-yl)methanone] | 0.003 | 0.003 | – | – |
| O=C(Nc1ccc2oc(-c3ccnc(C(=O)N4CCN(C(c5ccccc5)c5nnn(C(F)F)n5)CC4)c3)nc2c1)C1CC1 (racemic) [Compound 196, (R/S)—N-(2-(2-(4-((2-(difluoromethyl)-2H-tetrazol-5-yl)(phenyl)methyl)piperazine-1-carbonyl)pyridin-4-yl)benzo[d]oxazol-5-yl)cyclopropanecarboxamide] | 0.006 | 0.008 | – | – |
| CC(=O)Nc1ccc2oc(-c3ccnc(C(=O)N4CCN(C(c5ccccc5)c5nnn(C)n5)[C@H](C)C4)c3)nc2c1 (single isomer, unassigned) [Compound 16b] | > 10 | > 10 | – | – |
| O=C(Nc1ccc2oc(-c3ccnc(C(=O)N4CCN(C(c5ccccc5)c5nnn(C(F)F)n5)CC4)c3)nc2c1)C1CC1(F)F (single isomer, unassigned) [Compound 82, (R/S)—N-(2-(2-(4-((R/S)-(2-(difluoromethyl)-2H-tetrazol-5-yl)(phenyl)methyl)piperazine-1-carbonyl)pyridin-4-yl)benzo[d]oxazol-5-yl)-2,2-difluorocyclopropane-1-carboxamide] | 0.007 | 0.011 | – | – |
| Cn1nnc(C(c2ccccc2)N2CCN(C(=O)c3cc(-c4nc5cc(OC6CCOC6)ccc5o4)ccn3)CC2)n1 (stereo in doubt) [Compound 43, (4-((2-methyl-2H-tetrazol-5-yl)(phenyl)methyl)piperazin-1-yl)(4-(5-(((R)-tetrahydrofuran-3-yl)oxy)benzo[d]oxazol-2-yl)pyridin-2-yl)methanone] | – | – | 0.057 | 0.01 |
| CC(=O)Nc1ccc2oc(-c3ccnc(C(=O)N4CC5CCC(C4)N5C(c4ccccc4)c4nnn(C)n4)c3)nc2c1 (stereo not drawn) [Compound 1, N-(2-(2-(8-((2-methyl-2H-tetrazol-5-yl)(phenyl)methyl)-3,8-diazabicyclo[3.2.1]octane-3-carbonyl)pyridin-4-yl)benzo[d]oxazol-5-yl)acetamide] | 0.48 | 0.573 | – | – |
| Cn1nnc(C(c2ccccc2)N2CCN(C(=O)c3cc(-c4nc5cc(N6CCCC6=O)ccc5o4)ccn3)CC2)n1 (stereo not drawn) [Compound 2, 1-(2-(2-(4-((2-methyl-2H-tetrazol-5-yl)(phenyl)methyl)piperazine-1-carbonyl)pyridin-4-yl)benzo[d]oxazol-5-yl)pyrrolidin-2-one] | < 0.005 | 0.026 | – | – |
| CC(=O)Nc1ccc2oc(-c3ccnc(C(=O)N4CC5CN(C(c6ccccc6)c6nnn(C)n6)CC5C4)c3)nc2c1 (stereo not drawn) [Compound 3, N-(2-(2-(5-((2-methyl-2H-tetrazol-5-yl)(phenyl)methyl)octahydropyrrolo[3,4-c]pyrrole-2-carbonyl)pyridin-4-yl)benzo[d]oxazol-5-yl)acetamide] | 0.78 | 1.17 | – | – |
| CC(=O)Nc1ccc2oc(-c3ccnc(C(=O)N4CCN(C(c5ccccc5)c5nnn(C)n5)CC45CC5)c3)nc2c1 (stereo not drawn) [Compound 5, N-(2-(2-(7-((2-methyl-2H-tetrazol-5-yl)(phenyl)methyl)-4,7-diazaspiro[2.5]octane-4-carbonyl)pyridin-4-yl)benzo[d]oxazol-5-yl)acetamide] | 0.016 | 0.024 | – | – |
| CC(=O)Nc1ccc2oc(-c3ccnc(C(=O)N4C[C@H]5C[C@@H]4CN5C(c4ccccc4)c4nnn(C)n4)c3)nc2c1 (stereo partly drawn) [Compound 6a, N-(2-(2-((1R,4R)-5-((2-methyl-2H-tetrazol-5-yl)(phenyl)methyl)-2,5-diazabicyclo[2.2.1]heptane-2-carbonyl)pyridin-4-yl)benzo[d]oxazol-5-yl)acetamide] | > 7.87 | > 10 | – | – |
| CC(=O)Nc1ccc2oc(-c3ccnc(C(=O)N4C[C@H]5C[C@@H]4CN5C(c4ccccc4)c4nnn(C)n4)c3)nc2c1 (stereo partly drawn) [Compound 6b, N-(2-(2-((1R,4R)-5-((2-methyl-2H-tetrazol-5-yl)(phenyl)methyl)-2,5-diazabicyclo[2.2.1]heptane-2-carbonyl)pyridin-4-yl)benzo[d]oxazol-5-yl)acetamide] | – | – | > 10 | > 10 |
| CC(=O)Nc1ccc2oc(-c3ccnc(C(=O)N4CCN(C(c5ccccc5)c5nnn(C)n5)C5(CC5)C4)c3)nc2c1 (stereo not drawn) [Compound 7, N-(2-(2-(4-((2-methyl-2H-tetrazol-5-yl)(phenyl)methyl)-4,7-diazaspiro[2.5]octane-7-carbonyl)pyridin-4-yl)benzo[d]oxazol-5-yl)acetamide] | 0.52 | 0.841 | – | – |
| CC(=O)Nc1ccc2oc(-c3ccnc(C(=O)N4CC5(CCN(C(c6ccccc6)c6nnn(C)n6)CC5)C4)c3)nc2c1 (stereo not drawn) [Compound 8, N-(2-(2-(7-((2-methyl-2H-tetrazol-5-yl)(phenyl)methyl)-2,7-diazaspiro[3.5]nonane-2-carbonyl)pyridin-4-yl)benzo[d]oxazol-5-yl)acetamide] | > 10 | > 10 | – | – |
| CC(=O)Nc1ccc2oc(-c3ccnc(C(=O)N4CCN(C(c5nnn(C)n5)c5ccccc5F)CC4)c3)nc2c1 (stereo not drawn) [Compound 9, N-(2-(2-(4-((2-fluorophenyl)(2-methyl-2H-tetrazol-5-yl)methyl)piperazine-1-carbonyl)pyridin-4-yl)benzo[d]oxazol-5-yl)acetamide] | 0.126 | 0.214 | – | – |
| CC(=O)Nc1ccc2oc(-c3ccnc(C(=O)N4CC5(C4)CN(C(c4ccccc4)c4nnn(C)n4)C5)c3)nc2c1 (stereo not drawn) [Compound 10, N-(2-(2-(6-((2-methyl-2H-tetrazol-5-yl)(phenyl)methyl)-2,6-diazaspiro[3.3]heptane-2-carbonyl)pyridin-4-yl)benzo[d]oxazol-5-yl)acetamide] | > 10 | > 10 | – | – |
| CC(=O)Nc1ccc2oc(-c3ccnc(C(=O)N4CCN(C(c5cccc(F)c5)c5nnn(C)n5)CC4)c3)nc2c1 (stereo not drawn) [Compound 11, N-(2-(2-(4-((3-fluorophenyl)(2-methyl-2H-tetrazol-5-yl)methyl)piperazine-1-carbonyl)pyridin-4-yl)benzo[d]oxazol-5-yl)acetamide] | 0.173 | 0.26 | – | – |
| CC(=O)Nc1ccc2oc(-c3ccnc(C(=O)N4CCN(C(c5ccc(F)cc5)c5nnn(C)n5)CC4)c3)nc2c1 (stereo not drawn) [Compound 12, N-(2-(2-(4-((4-fluorophenyl)(2-methyl-2H-tetrazol-5-yl)methyl)piperazine-1-carbonyl)pyridin-4-yl)benzo[d]oxazol-5-yl)acetamide] | 0.022 | 0.055 | – | – |
